In experiment [1] the test system is enriched HPC from C57B1/6 mice. In words: Murine HPC colony formation in semi-solid culture. It is filed as cell-based. The method, then:
HPC were harvested from C57B1/6 mice by immunomagnetic affinity chromatography and placed in semi-solid cultures with optimal growth medium. At various times after initiation of culture, the formation of colonies and the size of the colonies (number of cells/colony) were assessed microscopically.
Female C57B1/6 mice were purchased from Simonson and used as a source of bone marrow cells in this study. The bone marrow was harvested, either from untreated mice or from mice injected with 5-fluorouracil (5-FU) (3 mg/mouse; approximately 150 mg/kg) in the tail vein 48 hours before harvest, from the femur and tibia of mice by flushing with phosphate buffered saline (PBS), pH 7.4, containing 2% fetal bovine serum (FBS) with a 21-gauge needle. The eluant from the flushing was centrifuged and the pellet was resuspended at 4×10^7 nucleated cells/ml in PBS containing PBS containing 2% FBS and 5% normal rat serum.
The reagents for immunomagnetic labeling were purchased from Stem Cell Technologies, Inc. (Vancouver, BC). […]

The subject of experiment [2] is human PBMC. In words: Proliferative response of human lymphocytes (3H-thymidine incorporation). It is filed as cell-based. To be noted: absence of mitogen. As to the method: Upon stimulation of lymphocytes with mitogen or antigen, these cells undergo blastogenesis and proliferation. In the absence of such stimuli, proliferation is seldom observed. One method to measure cellular proliferation in a short term assay is via measurement of the amount of the nucleotide thymidine that is incorporated into newly synthesized DNA. The effect of All on the proliferation of human PBMC in the presence and absence of pokeweed mitogen (“PWM”) was assessed.
Human PBMC were collected from normal volunteers and isolated via Ficoll Hypaque (Sigma Chemical, St. Louis) density centrifugation. After isolation of the buffy coat, the cells were washed 3× to remove the Ficoll Hypaque, counted in trypan blue (0.01%) and resuspended at a concentration of 1×10^6 cells/ml in RPMI 1640 containing 10% fetal calf serum and antibiotics. A 100 μl aliquot of cells was added to each well. Thereafter, various concentrations (0.1 to 1000 μg/ml final concentration) of AII in RPMI 1640 containing 10% FCS and antibiotics were added to various wells in triplicate. To the appropriate wells, PWM (20 μg/ml final concentration) was added. These plates were incubated at 37° C. in 5% CO2 for 48 hours. […] These filters were dried, placed in scintillation fluid and the amount of thymidine incorporated was determined by beta counting.
(Dividing cells build labelled thymidine or BrdU into new DNA.)

In experiment [3] the test system is murine mesenchymal stem cells. In words: GM-CSF secretion by mouse mesenchymal stem cells (ELISA). It is filed as cell-based, C57B1/6 mice. The conditions noted are these: 0.01 to 100 μg/ml; 24, 48 or 72 hours. As to the method:
One factor whose production is induced during differentiation of mesenchymal stromal cells is granulocyte-macrophage-colony stimulating factor (GM-CSF). Therefore, the effect of AII on the differentiation of mesenchymal cells was assessed by the production of colony stimulating factors, specifically GM-CSF, into the culture supernatant.
Bone marrow cells were harvested from the femur and tibia of C57B1/6 mice (Battin and Kingdom, Gilroy, Calif.) with saline containing 2% fetal calf serum. Thereafter, the red blood cells were lysed by brief exposure to a hypotonic ammonium chloride solution. The nucleated cells were then resuspended in 3 ml of […] phosphate buffered saline (PBS; pH 7.2) and rapidly layered over 7 ml of Percoll (70% Percoll gradient separation). This combination of nucleated bone marrow cells and Percoll were centrifuged at 1800 rpm for 20 minutes. After centrifugation, the cells in the upper 25% of the Percoll gradient were harvested and washed 3 times with PBS to remove excess Percoll. The cells were then resuspended at 4×10^5 cells/ml in alpha minimal essential medium containing 10% horse serum, 10% fetal calf serum and 5×10^−5 M 2-mercaptoethanol. […]
After all samples were collected, the level of GM-CSF in the supernatant was measured by Quantikine ELISA (R & D Systems, Minneapolis, Minn.) according to the manufacturer's instructions.
On the technique in general: In an ELISA, binding on a coated surface is turned into a signal by an enzyme label.

“Asp-Arg-Val-Tyr-Ile-His-Pro-Phe (DRVYIHPF; printed: Asp-Arg-Val-Tyr-Ile-His-Pro-Phe) [AII, octapeptide present in humans and other species; known pressor agent, commercially available]”: the HPC colony size result in experiment [1] (0 to 100 μg/ml, normal and 5-FU treated) is reported as “increases proportionately with exposure to increased concentrations of AII”. Further, the macroscopic colonies in experiment [1] (day 14, enriched HPC from untreated (normal) mice, 100 μg/ml) worked out at 100. In addition, the thymidine incorporation entry in experiment [2] is “no increase”. In experiment [3], the “production of GM-CSF” value was “induced an increase”.

These data come from patent publication US20020146823A1, “Method for promoting hematopoietic and mesenchymal cell proliferation and differentiation” (The University of Southern California, priority 1997, published 2002).
